Measurements from patent publication US20050101595A1, “N-containing cycloalkyl-substituted amino-thiazole derivatives and pharmaceutical compositions for inhibiting cell proliferation and methods for their use” (PFIZER INC., priority 2003, published 2005).
Where a name gives a salt, the structure may show the parent alone. Read-outs that look alike come from different tables or passages of the source.

Assays:
HCT-116 cell line = assay: Inhibition of cell growth, tetrazolium salt (MTT) assay; assay type: cell-based; conditions: for IC50: Homo sapiens, HCT-116, 120 h, MTT, three to five days, read-out: HCT-116 IC50; for HCT-116 % Inhibition at 0.25 μM: 0.25 μM compound
In short: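 First, cells were seeded in McCoy's 5A medium and held 4 h. Next, inhibitor concentrations in 0.5% (v/v) DMSO were applied for three to five days at 37° C, 5% CO2. Finally, after 4 h with 0.2 mg/mL MTT and medium removal, solubilized formazan was measured at 540 nm.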

[1] = target: human CDK4 and genetically truncated (1-264) cyclin D3 (Homo sapiens, UniProt P11802); assay: Inhibition of CDK4/Cyclin D Retinoblastoma Kinase Activity; assay type: biochemical; conditions: for Ki: apparent Ki, CDK4/truncated cyclin D3, Rb fragment substrate, 25 μM ATP
Chain of human CDK4 and genetically truncated (1-264) cyclin D3 (P11802 whole entry, the tested form may be a part): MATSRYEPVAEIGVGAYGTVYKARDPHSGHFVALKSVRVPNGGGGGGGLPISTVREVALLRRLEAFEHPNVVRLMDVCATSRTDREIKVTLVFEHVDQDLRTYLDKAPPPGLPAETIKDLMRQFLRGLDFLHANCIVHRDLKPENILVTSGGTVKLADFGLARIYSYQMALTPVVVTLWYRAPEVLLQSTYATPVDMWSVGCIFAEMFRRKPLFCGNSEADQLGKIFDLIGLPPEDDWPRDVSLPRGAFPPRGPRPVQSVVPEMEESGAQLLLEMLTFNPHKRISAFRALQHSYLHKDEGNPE
Chain of human CDK4 and genetically truncated (1-264) cyclin D3 (P30281 1-264 partner): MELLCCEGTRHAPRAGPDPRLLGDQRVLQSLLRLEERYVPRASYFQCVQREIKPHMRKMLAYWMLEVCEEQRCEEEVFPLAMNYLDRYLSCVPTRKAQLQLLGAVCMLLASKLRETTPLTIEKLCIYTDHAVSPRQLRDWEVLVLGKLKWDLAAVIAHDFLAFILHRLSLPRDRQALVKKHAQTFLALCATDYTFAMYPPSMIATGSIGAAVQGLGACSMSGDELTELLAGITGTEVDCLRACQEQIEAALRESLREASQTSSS
In short: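 Apparent Ki values come from competitive or competitive tight-binding inhibition fits of background-corrected 32P/33P incorporation into His-tagged Rb fragment (386-928), captured on nitrocellulose. Reaction: 5 nM insect-cell-expressed human CDK4 with cyclin D3 (1-264), 25 μM ATP, pH 7.4 HEPES, 2% DMSO, 30° C., 20 min, extended to 60 min for tight-binding inhibitors.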

CDK2/Cyclin A = CDK2/Cyclin A (Homo sapiens, UniProt P24941); assay: Inhibition of CDK2/Cyclin A Retinoblastoma Kinase Activity; assay type: biochemical; conditions: for Ki: apparent Ki, CDK2/proteolyzed cyclin A, Rb fragment substrate, 25 μM ATP; for CDK2 % Inhibition At 0.03 μM: Table 2
In short: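 Radiometric filter-binding readout of phosphate transfer to an Rb substrate fragment by purified CDK2/truncated cyclin A at 10 or 19 nM. Run at pH 7.4 with 25 μM ATP, 30 °C, 60–75 min, linear rates; background without enzyme subtracted, Ki from competitive-inhibition models.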

[2] = 0.1 μM compound, HCT-116, Table 4
[3] = 0.1 μM compound, HCT-116, Table 3
[4] = 0.03 μM compound, Table 4, 0.03 µM

## Nc1nc(NC2CCN(S(=O)(=O)c3ccc(-n4ccnc4)nc3)CC2)sc1C(=O)c1c(F)cccc1F [Example G25, 1-{4-Amino-2-[1-(6-imidazol-1-yl-pyridine-3-sulfonyl)-piperidin-4-ylamino]-thiazol-5-yl}-1-(2,6-difluoro-phenyl)-methanone Trifluoroacetic Acid Salt]
HCT-116 cell line; first HCT-116 column (c4)
  IC50: 63 nM
HCT-116 cell line; second HCT-116 column (c5)
  IC50: > 500 nM
[1]
  Ki: 0.36 nM
CDK2/Cyclin A
  Ki: 0.27 nM

## COc1ccccc1CCC(=O)N1CCC(Nc2nc(N)c(C(=O)c3c(F)cccc3F)s2)CC1 [Example R175]
HCT-116 cell line; HCT-116 cells, at 0.1 μM
  HCT-116 % Inhibition at 0.1 μM: 0%
HCT-116 cell line; HCT-116 cells
  HCT-116 5 Inhibition at 0.25 μM: 47
[1]; at 0.03 μM
  CDK4 % Inhibition at 0.03 μM: 41%
CDK2/Cyclin A; at 0.03 μM
  CDK2 % Inhibition at 0.03 μM: 19%

## Cc1cc(C)c(NC(=O)N2CCC(Nc3nc(N)c(C(=O)c4c(F)cccc4F)s3)CC2)c(C)c1 [Example O55]
HCT-116 cell line; HCT-116, Table 2
  HCT-116 % Inhibition at 0.25 μM: 41%
[1]; 0.03 μM compound, Table 2
  CDK4 % Inhibition at 0.03 μM: 10%
CDK2/Cyclin A; 0.03 μM compound
  CDK2 % Inhibition At 0.03 μM: 28%

## Nc1nc(NC2CCN(S(=O)(=O)c3ccc(N4CCCC(O)C4)nc3)CC2)sc1C(=O)c1c(F)cccc1F (stereo not shown) [Example G12, 1-{4-Amino-2-[1-(3-hydroxy-3,4,5,6-tetrahydro-2H-[1,2′]bipyridinyl-5′-sulfonyl)-piperidin-4-ylamino]-thiazol-5-yl}-1-(2,6-difluoro-phenyl)-methanone Trifluoroacetic Acid Salt]
HCT-116 cell line; first HCT-116 column (c4)
  IC50: 280 nM
HCT-116 cell line; second HCT-116 column (c5)
  IC50: > 500 nM
[1]
  Ki: 1.2 nM
CDK2/Cyclin A
  Ki: 0.49 nM

## Nc1nc(NC2CCN(C(=O)c3cccc4ccccc34)CC2)sc1C(=O)c1c(F)cccc1F [Example Q62]
HCT-116 cell line; [2]
  HCT-116 % Inhibition at 0.1 μM: 12%
HCT-116 cell line; HCT-116, Table 4
  HCT-116 % Inhibition at 0.25 μM: 53%
[1]; 0.03 μM compound, Table 4
  CDK4 % Inhibition at 0.03 μM: 49%
CDK2/Cyclin A; 0.03 μM compound, Table 4
  CDK2 % Inhibition at 0.03 μM: 33%

## CN(CCO)c1ccc(S(=O)(=O)N2CCC(Nc3nc(N)c(C(=O)c4c(F)cccc4F)s3)CC2)cn1 [Example G10]
HCT-116 cell line; first HCT-116 column (c4)
  IC50: 670 nM
HCT-116 cell line; second HCT-116 column (c5)
  IC50: > 5000 nM
[1]
  Ki: 1.2 nM
CDK2/Cyclin A
  Ki: < 1 nM

## Nc1nc(NC2CCN(S(=O)(=O)c3ccc(-c4ccccn4)s3)CC2)sc1C(=O)c1c(F)cccc1F [Example F6, 1-{4-Amino-2-[1-(5-pyridin-2-yl-thiophene-2-sulfonyl)-piperidin-4-ylamino]-thiazol-5-yl}-1-(2,6-difluoro-phenyl)-methanone]
HCT-116 cell line; first HCT-116 column (c4)
  IC50: 170 nM
HCT-116 cell line; second HCT-116 column (c5)
  IC50: 450 nM
[1]
  Ki: 0.46 nM
CDK2/Cyclin A
  Ki: 0.43 nM

## Nc1nc(NC2CCN(C(=O)c3ccc(F)cc3C(F)(F)F)CC2)sc1C(=O)c1c(F)cccc1F [Example R36]
HCT-116 cell line; HCT-116 cells, at 0.1 μM
  HCT-116 % Inhibition at 0.1 μM: 0%
HCT-116 cell line; HCT-116 cells
  HCT-116 5 Inhibition at 0.25 μM: 51
[1]; at 0.03 μM
  CDK4 % Inhibition at 0.03 μM: 17%
CDK2/Cyclin A; at 0.03 μM
  CDK2 % Inhibition at 0.03 μM: 21%

## COc1ccc(NC(=O)N2CCC(Nc3nc(N)c(C(=O)c4c(F)cccc4F)s3)CC2)cc1 [Example O84]
HCT-116 cell line; HCT-116, Table 2, 0.25 µM
  HCT-116 % Inhibition at 0.25 μM: 42%
[1]; 0.03 μM compound, Table 2, 0.03 µM
  CDK4 % Inhibition at 0.03 μM: 14%
CDK2/Cyclin A; 0.03 μM compound, 0.03 µM
  CDK2 % Inhibition At 0.03 μM: 23%

## Nc1nc(NC2CCN(S(=O)(=O)c3ccc(-c4ccccc4)cc3)CC2)sc1C(=O)c1c(F)cccc1F [Example P65]
HCT-116 cell line; [3]
  HCT-116 % Inhibition at 0.1 μM: 6%
HCT-116 cell line; HCT-116, Table 3
  HCT-116 % Inhibition at 0.25 μM: 31%
[1]; 0.03 μM compound, Table 3
  CDK4 % Inhibition at 0.03 μM: 65%
CDK2/Cyclin A; 0.03 μM compound, Table 3
  CDK2 % Inhibition at 0.03 μM: 48%

## Nc1nc(NC2CCN(C(=S)Oc3ccccc3)CC2)sc1C(=O)c1c(F)cccc1F [Example Q83]
HCT-116 cell line; [2]
  HCT-116 % Inhibition at 0.1 μM: 2%
HCT-116 cell line; HCT-116, Table 4
  HCT-116 % Inhibition at 0.25 μM: 25%
[1]; 0.03 μM compound, Table 4
  CDK4 % Inhibition at 0.03 μM: 55%
CDK2/Cyclin A; 0.03 μM compound, Table 4
  CDK2 % Inhibition at 0.03 μM: 72%

## Nc1nc(NC2CCN(C(=O)c3c(F)ccc(F)c3F)CC2)sc1C(=O)c1c(F)cccc1F [Example R37]
HCT-116 cell line; HCT-116 cells, at 0.1 μM
  HCT-116 % Inhibition at 0.1 μM: 0%
HCT-116 cell line; HCT-116 cells
  HCT-116 5 Inhibition at 0.25 μM: 48
[1]; at 0.03 μM
  CDK4 % Inhibition at 0.03 μM: 22%
CDK2/Cyclin A; at 0.03 μM
  CDK2 % Inhibition at 0.03 μM: 27%

## Nc1nc(NC2CCN(S(=O)(=O)c3ccc(NCCO)nc3)CC2)sc1C(=O)c1c(F)cccc1F [Example G3, 1-(4-Amino-2{1-[6-(2-hydroxy-ethylamino)-pyridine-3-sulfonyl]-piperidin-4-ylamino}-thiazol-5-yl)-1-(2,6-difluoro-phenyl)-methanone]
HCT-116 cell line; first HCT-116 column (c4)
  IC50: 1700 nM
HCT-116 cell line; second HCT-116 column (c5)
  IC50: > 5000 nM
[1]
  Ki: 1.2 nM
CDK2/Cyclin A
  Ki: < 1 nM

## Nc1nc(NC2CCN(C(=O)Cc3ccccc3)CC2)sc1C(=O)c1c(F)cccc1F [Example Q43]
HCT-116 cell line; [2]
  HCT-116 % Inhibition at 0.1 μM: 0%
HCT-116 cell line; HCT-116, Table 4
  HCT-116 % Inhibition at 0.25 μM: 24%
[1]; 0.03 μM compound, Table 4
  CDK4 % Inhibition at 0.03 μM: 30%
CDK2/Cyclin A; 0.03 μM compound, Table 4
  CDK2 % Inhibition at 0.03 μM: 16%

## Nc1nc(NC2CCN(C(=O)CCC3CCCC3)CC2)sc1C(=O)c1c(F)cccc1F [Example R97]
HCT-116 cell line; HCT-116 cells, at 0.1 μM
  HCT-116 % Inhibition at 0.1 μM: 0%
HCT-116 cell line; HCT-116 cells
  HCT-116 5 Inhibition at 0.25 μM: 39
[1]; at 0.03 μM
  CDK4 % Inhibition at 0.03 μM: 17%
CDK2/Cyclin A; at 0.03 μM
  CDK2 % Inhibition at 0.03 μM: 13%

## Nc1nc(NC2CCN(C(=O)c3cccs3)CC2)sc1C(=O)c1c(F)cccc1F [Example Q61]
HCT-116 cell line; 0.1 μM compound, HCT-116, Table 4, 0.1 µM
  HCT-116 % Inhibition at 0.1 μM: 0%
HCT-116 cell line; HCT-116, Table 4, 0.25 µM
  HCT-116 % Inhibition at 0.25 μM: 34%
[1]; [4]
  CDK4 % Inhibition at 0.03 μM: 49%
CDK2/Cyclin A; [4]
  CDK2 % Inhibition at 0.03 μM: 41%

## CC(C)(C)COC(=O)N1CCC(Nc2nc(N)c(C(=O)c3c(F)cccc3F)s2)CC1 [Example R88]
HCT-116 cell line; HCT-116 cells, at 0.1 μM
  HCT-116 % Inhibition at 0.1 μM: 0%
HCT-116 cell line; HCT-116 cells
  HCT-116 5 Inhibition at 0.25 μM: 42
[1]; at 0.03 μM
  CDK4 % Inhibition at 0.03 μM: −3%
CDK2/Cyclin A; at 0.03 μM
  CDK2 % Inhibition at 0.03 μM: 6%

## Nc1nc(NC2CCN(C(=S)Oc3ccc(F)cc3)CC2)sc1C(=O)c1c(F)cccc1F [Example C11, 4-[4-Amino-5-(2,6-difluoro-benzoyl)-thiazol-2-ylamino}-piperidine-1-carbothioic acid —O-(4-Fluoro-phenyl) ester]
HCT-116 cell line; first HCT-116 column (c4)
  IC50: 400 nM
HCT-116 cell line; second HCT-116 column (c5)
  IC50: 2700 nM
[1]
  Ki: 10 nM
CDK2/Cyclin A
  Ki: 6.5 nM

## COc1ccc(S(=O)(=O)N2CCC(Nc3nc(N)c(C(=O)c4c(F)cccc4F)s3)CC2)cc1 [Example F7, 1-{4-Amino-2-[1-(4-methoxy-benzenesulfonyl)-piperidin-4-ylamino]-thiazol-5-yl}-1-(2,6-difluoro-phenyl)-methanone]
HCT-116 cell line; first HCT-116 column (c4)
  IC50: 190 nM
HCT-116 cell line; second HCT-116 column (c5)
  IC50: 460 nM
[1]
  Ki: 2.5 nM
CDK2/Cyclin A
  Ki: 0.8 nM

## COC(=O)c1ccccc1S(=O)(=O)N1CCC(Nc2nc(N)c(C(=O)c3c(F)cccc3F)s2)CC1 [Example P28]
HCT-116 cell line; [3]
  HCT-116 % Inhibition at 0.1 μM: 7%
HCT-116 cell line; HCT-116, Table 3
  HCT-116 % Inhibition at 0.25 μM: 28%
[1]; 0.03 μM compound, Table 3
  CDK4 % Inhibition at 0.03 μM: 56%
CDK2/Cyclin A; 0.03 μM compound, Table 3
  CDK2 % Inhibition at 0.03 μM: 55%

## Cc1ccc(C(=O)N2CCC(Nc3nc(N)c(C(=O)c4c(F)cccc4F)s3)CC2)cc1F [Example R131]
HCT-116 cell line; HCT-116 cells, at 0.1 μM
  HCT-116 % Inhibition at 0.1 μM: 1%
HCT-116 cell line; HCT-116 cells
  HCT-116 5 Inhibition at 0.25 μM: 44
[1]; at 0.03 μM
  CDK4 % Inhibition at 0.03 μM: 58%
CDK2/Cyclin A; at 0.03 μM
  CDK2 % Inhibition at 0.03 μM: 42%
